Test results taken from patent US20250262279A1, “DOSE REGIMEN FOR LONG-ACTING GLP1/GLUCAGON RECEPTOR AGONISTS” (Boehringer Ingelheim International GmbH, priority 2021, published 2025).

Experiment: Example 3: safety (AEs, laboratory, ECG, vital signs, NASH scores)
Assay type: in vivo, human
Protocol: • Semaglutide • Dose: 0.25, 0.25, 0.25, 0.25, 0.5, 0.5, 0.5, 0.5, 1.0 mg (weeks 9−16) once weekly • Mode of administration: Solution for injection
Safety endpoints included Columbia-Suicide Severity Rating Scale (C-SSRS) and various electrocardiograms (ECG) assessments. Safety was assessed based on adverse events (AEs), adverse event of special interest (AESIs), clinical laboratory assessments, vital signs, and physical examination. AESIs were pre-specified in the protocol as pancreatitis and hepatic injury.
Analyses of safety were descriptive.

## CC[C@H](C)[C@H](NC(=O)[C@H](Cc1ccccc1)NC(=O)[C@H](CCC(=O)O)NC(=O)[C@H](CCCCNC(=O)COCCOCCNC(=O)COCCOCCNC(=O)CC[C@H](NC(=O)CCCCCCCCCCCCCCCCC(=O)O)C(=O)O)NC(=O)[C@H](C)NC(=O)[C@H](C)NC(=O)[C@H](CCC(N)=O)NC(=O)CNC(=O)[C@H](CCC(=O)O)NC(=O)[C@H](CC(C)C)NC(=O)[C@H](Cc1ccc(O)cc1)NC(=O)[C@H](CO)NC(=O)[C@H](CO)NC(=O)[C@@H](NC(=O)[C@H](CC(=O)O)NC(=O)[C@H](CO)NC(=O)[C@@H](NC(=O)[C@H](Cc1ccccc1)NC(=O)[C@@H](NC(=O)CNC(=O)[C@H](CCC(=O)O)NC(=O)C(C)(C)NC(=O)[C@@H](N)Cc1cnc[nH]1)[C@@H](C)O)[C@@H](C)O)C(C)C)C(=O)N[C@@H](C)C(=O)N[C@@H](Cc1c[nH]c2ccccc12)C(=O)N[C@@H](CC(C)C)C(=O)N[C@H](C(=O)N[C@@H](CCCNC(=N)N)C(=O)NCC(=O)N[C@@H](CCCNC(=N)N)C(=O)NCC(=O)O)C(C)C [semaglutide, reference compound]
Ex.3, whole trial
  deaths: no deaths
In vivo
  AEs leading to discontinuation of trial medication, number of patients: 2 N
  AEs leading to discontinuation of trial medication, percentage of patients: (4.0) %
  AEs of special interest, number of patients: 0 N
  Any AE, number of patients: 26 N
  Any AE, percentage of patients: (52.0) %
  Investigator defined drug-related AEs, number of patients: 19 N
  Investigator defined drug-related AEs, percentage of patients: (38.0) %
  Serious AEs, number of patients: 0 N
  Severe AEs, number of patients: 0 N
  cases of pancreatitis: no cases of pancreatitis
  patients with SAEs: 0 patients
  patients with SAEs assessed as drug-related by the investigator: 0 patients
  proportion of patients with PCSA high glucose on treatment: 5.0%
  severe AEs and serious AEs: no severe AEs or serious AEs
